In patent US10729157B2, “Methods for regulating weight and size of animals” (Oragenics, Inc., priority 2004, dated 2020):
Like-named read-outs stand apart in the source and are kept apart here.

Columns and labels:
[1] = Source text: Rats were randomly divided, caged separately, and fed water ad libitum and diet TD 80406 diet (Harlan Teklad, Madison, Wis.). The TD 80406 diet has about 1-2% glycine present in the lactalbumin component and is considered a non-supplemented diet.
Adult (180 day old) male Fisher rats were randomly assigned in treatment groups of 10 rats in each group to diets comprising 5% or 20% glycine in their feed or a non-supplemented diet. Animal and food weight measurements were obtained on the indicated day of the study. The analyst undertaking the weight measurement was blinded relative to the diet of the animal for which the observation was being recorded. The bars represent±1 standard error of the weights of the rats in each group on the indicated observation day.
(§1) The identical experiment was performed with female adult (180 day old) Fisher rats.

abdominal fat [2] = test system: abdominal fat
Method: Five rats from each treatment group were chosen at random and euthanized on day 30 of the study. Measurements of the abdominal fat content of each rat were obtained at necropsy (FIG. 2). The analyst undertaking the measurement was blinded relative to the treatment group of the animal for which the observation was being recorded. Data was analyzed using a One-Way Analysis of Variance and subjected to post-hoc analysis using Dunnett's Multiple Comparison Test.
as §1

[3] = rats on a high glycine diet
Source text: Blood samples were withdrawn from the tail vein of the rats under study and sent to Charles River Laboratories for Mutli-Analyte Profile testing. […] Am J Physiol Regul Integr Comp Physiol, 2004. […] Nahrung, 1980. 24(7):663-71; Sugiyama et al., Dietary sulfur-containing amino acids and glycine as determinant factors in plasma cholesterol regulation in growing rats. J Nutr Sci Vitaminol (Tokyo), 1985. […] Pol J Pharmacol, 2003. […] Nutrition Research, 1999. 19(12):1777-1789; Yoshida et al., Effects of addition of arginine, cystine, and glycine to the bovine milk-simulated amino acid mixture on the level of plasma and liver cholesterol in rats. J Nutr Sci Vitaminol (Tokyo), 1988. 34(6):567-76; Olson et al., Effect of amino acid diets upon serum lipids in man. Am J Clin Nutr, 1970. […] Vopr Med Khim, 1984. 30(2):78-80; Yagasaki et al., Effects of dietary methionine, cystine, and glycine on endogenous hypercholesterolemia in hepatoma-bearing rats. J Nutr Sci Vitaminol (Tokyo), 1986. […] J Biol Chem, 1990. 265(10):5910-6.

[4] = adult male ZDF rats, 20% glycine diet vs non-supplemented, day 15 through day 36
Source text: (§2) Adult male Zucker diabetic fatty (ZDF) rats were randomly assigned in treatment groups of 3 rats in each group to diets comprising 20% glycine in their feed or a non-supplemented diet. ZDF rats are obese, hyperlipidemic, and insulin resistant. Weight measurements were obtained on the indicated day of the study. The analyst undertaking the weight measurement was blinded relative to the diet of the animal for which the observation was being recorded. The bars represent±1 standard error of the weights of the rats in each group on the indicated observation day. Data was analyzed using a One-Way Analysis of Variance and subjected to post-hoc analysis using Dunnett's Multiple Comparison Test. […] Measurements of the abdominal fat content of each rat were obtained at necropsy (FIG. 7).

abdominal fat [5] = conditions: ZDF rats, 20% glycine diet, at necropsy
Source text: as §2

[6] = remark: listed apart in the source
Source text: Adult female Sprague-Dawley rats were randomly assigned in treatment groups of 3 rats in each group to diets comprising 5, 10, 15, or 20% glycine in their feed or a non-supplemented diet. Weight measurements were obtained on the indicated day of the study. The analyst undertaking the weight measurement was blinded relative to the diet of the animal for which the observation was being recorded. The bars represent±1 standard error of the weights of the rats in each group on the indicated observation day. […] Data was analyzed using a One-Way Analysis of Variance and subjected to post-hoc analysis using Dunnett's Multiple Comparison Test.

abdominal fat [7] = conditions: adult female Sprague-Dawley rats, glycine from 5% to 20% in diet vs non-supplemented, day 30
Source text: Adult female Sprague-Dawley rats were randomly assigned in treatment groups of 3 rats in each group to diets comprising 5, 10, 15, or 20% glycine in their feed or a non-supplemented diet. The rats in each treatment group were euthanized on day 30 of the study. Measurements of the abdominal fat content of each rat were obtained at necropsy. The analyst undertaking the measurement was blinded relative to the treatment group of the animal for which the observation was being recorded. Data was analyzed using a One-Way Analysis of Variance and subjected to post-hoc analysis using Dunnett's Multiple Comparison Test.

BAD = test system: BAD
Method: Adult male Sprague-Dawley rats were randomly assigned in treatment groups of 3 rats in each group to diets comprising 5% or 20% of glycine in their feed or a non-supplemented diet. On day 20 of the study the animals were euthanized and the adipose tissue obtained at necropsy. Total proteins were extracted from the adipose tissue.
Assay of the tissue extracts for the ability to phosphorylate BAD at serine position 136 was performed as follows: One mg of tissue extract was added to BAD agarose (Upstate, Waltham, Mass.). The reaction volume was adjusted to 1 ml using RIPA buffer (with anti-phosphatases and anti-proteases) (Tris-HCl [pH 7.4] 50 mM; NP-40 1%; Na deoxycholate 0.25%; NaCl 150 mM; EDTA 1 mM; PMSF 1 mM; Protease Arrest 100 ul; sodium orthovanadate 1 mM; sodium fluoride 1 mM) and incubated for 0.5 hr at 30° C. The agarose beads were collected by centrifugation (5 sec at 12,000× g). The supernatant was removed and the beads washed 3× with ice cold TBS. The BAD-agarose was resuspended in 40 μl of sample buffer, boiled for 5 min, and centrifuged (5 min at 12,000× g). Seven microliters of sample were electrophoresed on a 15% gel (Tris-Glycine). The protein was transferred by western blotting to a nitrocellulose membrane and blocked with 5% NFM in TTBS at 4° C. with shaking. The membrane was washed with 2% NFM in TTBS. Each lane was blotted with rabbit anti-phospho-BAD 136 antibody at (1:1000 in 2% NFM/TTBS) for 2 hrs at room temperature. The blots were washed three times for 5 min with TTBS. The blots were incubated with goat anti-Rabbit-HRP (1:5000 in 2% NFM/TTBS). The blots were washed 3× for 5 min with TTBS and 2× 5 min with TBS. Visualization of phosphorylated BAD was accomplished with a chemiluminesence substrate (Pierce Super-Signal Substrate™).

[8] = for size and weight after switch to diet without glycine supplementation: 4 weeks glycine diet then 10% to 0%, within one month; for growth (length) / weight gain: glycine added to diet
Source text: Animals treated for 4 weeks with diet supplemented with glycine were switched to diet containing no glycine supplementation (FIGS. 18 and 19, 10% to 0%). […] Animals treated for 4 weeks with diet supplemented with glycine were switched to diet containing no glycine supplementation (FIGS. 20 and 21, 10% to 0%).

Remark: listed apart in the source
[9] = test system: 3T3-L1 cells differentiated into adipocytes
[10] = Glycine added to the diet of laboratory animals (general statement)
[11] = adult female Fisher rats compared with males

- blood chemistry and complete blood counts (15% glycine diet for 6 weeks vs control diet): No differences
SMILES: NCC(=O)O [glycine]
- effect on weight loss and abdominal fat content [1, 11]: somewhat more pronounced in the females than in the males
- weight ([1]; adult male Fisher rats, 20% glycine diet vs 5% glycine or non-supplemented diet, day 14-30): statistically lighter
- weight after return to non-supplemented diet ([1]; adult male Fisher rats, 20% glycine group returned to non-supplemented diet on day 30, vs control after day 32): no statistical difference
- weight at end of Recovery Phase ([1]; treated adult female Fisher rats vs control): did not rebound to the level of the control animals
- reduction in abdominal fat (abdominal fat [2]; [11]): greater than that observed for the male
- abdominal fat content (abdominal fat [2]; adult male Fisher rats, 20% glycine diet vs 5% glycine or non-supplemented diet, day 30): statistically significant less abdominal fat
- adiponectin levels [3]: increase in a manner trending towards significance
- leptin levels [3]: Decrease in leptin levels, trending toward significance
- serum HDL level [3]: statistically significant (p≤0.05) reduction
- serum cholesterol level [3]: statistically significant (p≤0.05) reduction
- serum triglyceride level [3]: statistically significant (p≤0.05) reduction
- weight [4]: statistically significant decrease in weight
- abdominal fat content (abdominal fat [5]): statistically significant (p≤0.05) less abdominal fat
- weight ([6]; adult female Sprague-Dawley rats, 20% glycine diet vs non-supplemented, day 15 through day 36): statistically significant decrease in weight
- weight loss ([6]; female Sprague-Dawley rats, high glycine in the diet): rapid significant weight loss
- abdominal fat content (abdominal fat [7]): statistically significant less abdominal fat
- ability of WAT protein extracts to phosphorylate BAD at serine position 136 (BAD; WAT of treated animals, preliminary data): did not have the ability to phosphorylate BAD
- phosphorylation state of BAD at tyrosine 136 (BAD; liver tissue extracts): no such decrease
- phosphorylation state of BAD at tyrosine 136 (BAD; muscle extracts): no such decrease
- loss of BAT tissue (BAD; preliminary experiments, glycine-fed rats): no significant loss
- phosphorylation of BAD at tyrosine 136 (BAD; white adipose tissue (WAT), adult male rats, 5% or 20% glycine diet, day 20): dose dependent decrease
- size and weight after switch to diet without glycine supplementation ([8]; immature female rats): same size and weight as the control animals
- growth (length) ([8]; immature female rats): dose-dependent reduction
- weight gain ([8]; immature female rats): dose-dependent reduction
- size and weight after switch to diet without glycine supplementation ([8]; immature male rats): same size and weight as the control animals
- growth (length) ([8]; immature male rats): dose-dependent reduction
- weight gain ([8]; immature male rats): dose-dependent reduction
- gross findings at necropsy (15% glycine and 85% TD80406 diet for 6 weeks, rats 24 days old at start): No gross lesions or treatment related abnormalities other than weight
- histopathological examination of tissues (one animal fed high glycine diet, brain, lung, liver, adrenal gland, kidneys, urinary bladder, heart, stomach, intestines): no microscopic changes from normal histology
- apoptosis by TUNEL staining ([9]; glycine in media equivalent to 2× the normal circulating levels in the blood, preliminary experiments): positive TUNEL staining
- TUNEL staining ([9]; high concentrations of glycine in the medium vs non-treated cells): increased staining for TUNEL
- weight loss ([10]; dietary glycine at high levels (20% by weight)): significant weight loss
- weight ([10]; glycine added to the diet of laboratory animals, rodent strains and dogs): dose-dependent loss in weight
- side-effects ([10]; optimal and super-optimal doses, prolonged administration): no deleterious side-effects
